Source: article PMC9597602, “Metal Complexes as Antifungals? From a Crowd-Sourced Compound Library to the First In Vivo Experiments” (JACS Au, 2022)

Tests used:
[1] = test system: Cryptococcus neoformans H99 ATCC 208821 type strain; experiment: Antifungal MIC assay; type: cell-based; conditions: initial CO-ADD dose-response screening; ≥80% growth inhibition
Procedure: (§1) For the fungal assays, both fungi (yeast) strains were cultured for 3 days on Yeast Extract-Peptone Dextrose (YPD; Becton Dickinson 242720) agar at 30 °C. A yeast suspension of 1 × 10^6 to 5 × 10^6 CFU/mL (as determined by OD530) was prepared from five colonies from the agar plates, subsequently diluted with Yeast Nitrogen Base media (YNB; Becton Dickinson 233520), and added to each well of the compound containing plates (384-well plates, NBS; Corning CLS3640), giving a final cell density of 2.5 × 10^3 CFU/mL and a total volume of 50 μL. Plates were covered and incubated at 35 °C for 36 h without shaking. […] MIC values were recorded as the lowest concentration at which the growth was inhibited by ≥80%, equivalent to ″optically clear-to-slightly hazy″ or MIC score of 0–1 as per CLSI guidelines M27 Reference Method for Broth Dilution Antifungal Susceptibility Testing of Yeasts. […] Fluconazole (Sigma F8929) was used as internal control on each plate for all strains. All compounds were tested as two technical replicates in two to four independent biological assays, n = 4–8 final data.

[2] = test system: Pseudomonas aeruginosa ATCC 27853 QC control strain; experiment: CO-ADD antibacterial MIC assay; type: cell-based; conditions: initial CO-ADD dose-response screening; ≥80% growth inhibition
Procedure: (§2) For the all the bacterial assays, each bacterial strain was cultured in cation-adjusted Mueller Hinton broth (CAMHB; Bacto Laboratories 212322) at 37 °C overnight. A sample of each culture was then diluted 40-fold in fresh CAMHB and incubated at 37 °C for 1.5–3 h. The resultant mid-log phase cultures were diluted with CAMHB (CFU/mL measured by OD600) and then added to each well of the compound-containing plates (384-well non-binding surface (NBS) plates; Corning CLS3640), giving a cell density of 5 × 10^5 CFU/mL and a total volume of 50 μL. Plates were covered and incubated at 37 °C for 18 h without shaking. Inhibition of bacterial growth was determined by measuring the absorbance at 600 nm (OD600) using media only as negative control and bacteria without inhibitors as positive control. MIC values were determined as the lowest concentration at which the growth was inhibited by ≥80% (equivalent to no visible growth by the eye). Colistin sulfate (Sigma C4461) and vancomycin HCl (Sigma 861987) were used as internal controls on each plate for Gram-negative and Gram-positive bacteria, respectively. All compounds were tested as two technical replicates in two independent biological assays, n = 4 final data.

[3] = test system: Escherichia coli ATCC 25922 FDA control strain; experiment: CO-ADD antibacterial MIC assay; type: cell-based; conditions: initial CO-ADD dose-response screening; ≥80% growth inhibition
Procedure: as §2

[4] = test system: methicillin-resistant Staphylococcus aureus ATCC 43300; experiment: CO-ADD antibacterial MIC assay; type: cell-based; conditions: initial CO-ADD dose-response screening; ≥80% growth inhibition
Procedure: as §2

[5] = test system: Acinetobacter baumannii ATCC 19606 type strain; experiment: CO-ADD antibacterial MIC assay; type: cell-based; conditions: initial CO-ADD dose-response screening; ≥80% growth inhibition
Procedure: as §2

[6] = test system: Candida albicans ATCC 90028 NCCLS11; experiment: Antifungal MIC assay; type: cell-based; conditions: initial CO-ADD dose-response screening; ≥80% growth inhibition
Procedure: as §1, with “[…],” for “MIC values were recorded as the lowest concentration at which the growth was inhibited by ≥80%,”

human red blood cells = type: cell-based; conditions: initial CO-ADD screening, 1 h; 10% hemolysis
Procedure: Human whole blood (Australian Red Cross) was washed three times with 3 vol of 0.9% NaCl and resuspended in a concentration of 0.5 × 10^8 cells/mL, determined by a manual cell count in a Neubauer hemocytometer. […] After incubation, the plates were centrifuged at 1000g for 10 min to pellet cells and debris; 25 μL of the supernatant was then transferred to reading plates (384-well, polystyrene plated (PS), Corning CLS3680), with hemolysis determined by measuring the supernatant absorbance at […] (OD405) using cells without inhibitors as negative control and cells with 1% Triton X-100 (Sigma T8787) as positive control. […] Melittin (Sigma M2272) was used as internal control on each plate.

[7] = test system: HEK-293 human embryonic kidney cells ATCC CRL-1573; conditions: initial CO-ADD screening, 20 h; for CC50: read-out: HEK CC50
Procedure: The cells were incubated together with the compounds for 20 h at 37 °C in 5% CO2. […] Tamoxifen (Sigma T5648) was used as internal control on each plate.

Row | SMILES | MIC Cn [1] | MIC Pa [2] | MIC Ec [3] | MIC MRSA (Sa) [4] | MIC Ab [5] | MIC Ca [6] | RBC HC10 (human red blood cells) | CC50 [7] [µM] | HEK CC50 [7] [µg/mL]
1 | O=C([O][Eu]([O]C(=O)c1ccc(F)cc1F)[O]C(=O)c1ccc(F)cc1F)c1ccc(F)cc1F.c1ccc(-c2ccnc3c2ccc2c(-c4ccccc4)ccnc23)cc1 [Eu-S2] | 0.625 µM | > 20 µM | > 20 µM | 1.25 µM | > 20 µM | 10 µM | 0.7 µM | 15.9 | 
2 | O=C([O][Eu]([O]C(=O)c1cc(F)ccc1F)[O]C(=O)c1cc(F)ccc1F)c1cc(F)ccc1F.c1ccc(-c2ccnc3c2ccc2c(-c4ccccc4)ccnc23)cc1 [Eu-S1] | 5 µM | > 20 µM | > 20 µM | 10 µM | > 20 µM | > 20 µM | > 20 µM | > 20 | 
3 | O=C([O][Eu]([O]C(=O)c1ccccc1F)[O]C(=O)c1ccccc1F)c1ccccc1F.c1ccc(-c2ccnc3c2ccc2c(-c4ccccc4)ccnc23)cc1 [Eu-S3] | 5 µM | > 20 µM | > 20 µM | 10 µM | > 20 µM | 20 µM | > 20 µM | 14.7 | 
4 | Cc1cccc2[n+]1[Au-]([Cl])([Cl])[n+]1c(C)cccc1C(C(C)(C)C)=C=C2c1ccccc1.[Cl-] [Au-S12] | <= 0.25 μg/mL | > 32 µg/mL | > 32 µg/mL | 16 µg/mL | > 32 µg/mL | 4 µg/mL | <= 0.25 μg/mL |  | > 32
5 | CC1=CC=CC2=C(c3ccccc3)[C](=[Au]([Cl])([Cl])[Cl])C(c3ccccc3)(c3cccc(C)n3)N12 (centres unmarked) [Au-S13] | <= 0.25 μg/mL | > 32 µg/mL | 16 µg/mL | <= 0.25 μg/mL | 32 µg/mL | 2 µg/mL | 19.3 µg/mL |  | > 32
6 | O=C([O][Eu]([O]C(=O)c1ccc(F)cc1F)[O]C(=O)c1ccc(F)cc1F)c1ccc(F)cc1F.c1cnc2c(c1)ccc1cccnc12 [Eu-S5] | 20 µM | > 20 µM | > 20 µM | > 20 µM | > 20 µM | > 20 µM | 0.5 µM | 13.6 | 
7 | Nc1cc2cccnc2c2ncccc12.O=C([O][Eu]([O]C(=O)c1ccccc1F)[O]C(=O)c1ccccc1F)c1ccccc1F [Eu-S4] | 20 µM | > 20 µM | > 20 µM | > 20 µM | > 20 µM | > 20 µM | 1.2 µM | 3.3 | 
8 | Cc1cccc(C2(c3ccccc3)[C]([Au-][Cl])=C(c3ccccc3)c3cccc(C)[n+]32)n1 (centres unmarked) [Au-S14] | <= 0.25 μg/mL | > 32 µg/mL | > 32 µg/mL | <= 0.25 μg/mL | 32 µg/mL | <= 0.25 μg/mL | 23.7 µg/mL |  | 0.7
9 | Cc1cccc2[n+]1[Pd-2]([Cl])([Cl])[n+]1c(C)cccc1C(c1ccccc1)=C=C2c1ccccc1 [HM_C1] | 1 µg/mL | > 32 µg/mL | > 32 µg/mL | 2 µg/mL | > 32 µg/mL | 16 µg/mL | > 32 µg/mL |  | 1.0
10 | Cc1cccc(C(=C=C(c2cccc(C)n2)C(C)(C)C)c2ccccc2)n1.[Cl][Pt]([Cl])([Cl])[Cl] [HM_C5] | > 32 µg/mL | > 32 µg/mL | > 32 µg/mL | > 32 µg/mL | > 32 µg/mL | 32 µg/mL | > 32 µg/mL |  | > 32
11 | Cc1cccc2[n+]1[Pd-2]([Cl])([Cl])[n+]1c(C)cccc1C(C(C)(C)C)=C=C2c1ccccc1 [HM_C2] | <= 0.25 μg/mL | > 32 µg/mL | > 32 µg/mL | <= 0.25 μg/mL | 32 µg/mL | <= 0.25 μg/mL | > 32 µg/mL |  | 1.1
12 | O=[N+]([O-])[O-].[Ag+] [AgNO3, reference compound] | 0.25 µg/mL | 0.25 µg/mL | 0.25 µg/mL | 2 µg/mL | 0.25 µg/mL | 0.25 µg/mL | 8.9 µg/mL |  | > 32
13 | Cc1cccc2[n+]1[Au-]([Cl])([Cl])[n+]1c(C)cccc1C(c1ccccc1)=C=C2c1ccccc1.[Cl-] [Au-S11] | 16 µg/mL | > 32 µg/mL | 32 µg/mL | 16 µg/mL | > 32 µg/mL | 4 µg/mL | > 32 µg/mL |  | > 32
